Key:
[1] = molecular target: T1, human orexin-2 receptor (hOX2R) (Homo sapiens, UniProt O43614); experiment: FLIPR Ca2+ Flux Assay, CHO cells expressing the human orexin-2 receptor; assay type: cell-based; settings: agonist 70 pM Ala-6,12 human orexin-A
T1 construct: expressed in transfected cells; host or cells: CHO cells (grown under G418)
T1 sequence (O43614 1-444): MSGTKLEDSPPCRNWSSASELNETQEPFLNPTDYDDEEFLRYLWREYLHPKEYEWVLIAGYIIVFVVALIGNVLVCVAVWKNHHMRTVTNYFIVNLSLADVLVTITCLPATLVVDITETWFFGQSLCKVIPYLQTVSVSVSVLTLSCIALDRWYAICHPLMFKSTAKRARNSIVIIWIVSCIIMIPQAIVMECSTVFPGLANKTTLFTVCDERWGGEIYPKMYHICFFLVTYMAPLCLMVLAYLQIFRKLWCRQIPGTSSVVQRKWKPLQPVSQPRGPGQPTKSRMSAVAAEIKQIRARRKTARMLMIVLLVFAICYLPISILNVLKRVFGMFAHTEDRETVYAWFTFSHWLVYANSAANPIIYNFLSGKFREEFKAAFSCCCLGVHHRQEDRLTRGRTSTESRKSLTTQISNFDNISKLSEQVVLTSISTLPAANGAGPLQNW
Protocol: The utility of the compounds in accordance with the present invention as orexin receptor OX1R and/or OX2R antagonists may be readily determined without undue experimentation by methodology well known in the art, including the “FLIPR Ca^2+ Flux Assay” (Okumura et al., Biochem. Biophys. Res. Comm. 280:976-981, 2001). In a typical experiment the OX1 and OX2 receptor antagonistic activity of the compounds of the present invention was determined in accordance with the following experimental method. For intracellular calcium measurements, Chinese hamster ovary (CHO) cells expressing the rat orexin-1 receptor or the human orexin-2 receptor, are grown in Iscove's modified DMEM containing 2 mM L-glutamine, […], 1% hypoxanthine-thymidine supplement, 100 U/ml penicillin, 100 μg/ml streptomycin and 10% heat-inactivated fetal calf serum (FCS). The cells are seeded at 20,000 cells/well into Becton-Dickinson black 384-well clear bottom sterile plates coated with poly-D-lysine. All reagents were from GIBCO-Invitrogen Corp. The seeded plates are incubated overnight at 37° C. and 5% CO2. Ala-6,12 human orexin-A as the agonist is prepared as a 1 mM stock solution in 1% bovine serum albumin (BSA) and diluted in assay buffer (HBSS containing 20 mM HEPES, 0.1% BSA and 2.5 mM probenecid, pH7.4) for use in the assay at a final concentration of 70 pM. Test compounds are prepared as 10 mM stock solution in DMSO, then diluted in 384-well plates, first in DMSO, then assay buffer. On the day of the assay, cells are washed 3 times with 100 μl assay buffer and then incubated for 60 min (37° C., 5% CO2) in 60 μl assay buffer containing 1 μM Fluo-4AM ester, 0.02% pluronic acid, and 1% BSA. The dye loading solution is then aspirated and cells are washed 3 times with 100 μl assay buffer. 30 μl of that same buffer is left in each well. Within the Fluorescent Imaging Plate Reader (FLIPR, Molecular Devices), test compounds are added to the plate in a volume of 25 μl, incubated for 5 min and finally 25 μl of agonist is added. Fluorescence is measured for each well at 1 second intervals for 5 minutes and the height of each fluorescence peak is compared to the height of the fluorescence peak induced by 70 pM Ala-6,12 orexin-A with buffer in place of antagonist. For each antagonist, IC50 value (the concentration of compound needed to inhibit 50% of the agonist response) is determined. Alternatively, compound potency can be assessed by a radioligand binding assay (described in Bergman et. al. Bioorg. Med. Chem. Lett. 2008, 18, 1425-1430) in which the inhibition constant (Ki) is determined in membranes prepared from CHO cells expressing either the OX1 or OX2 receptor. The intrinsic orexin receptor antagonist activity of a compound which may be used in the present invention may be determined by these assays.

hOX1R = molecular target: T2, hOX1R (Homo sapiens, UniProt O43613); experiment: FLIPR Ca2+ Flux Assay, CHO cells expressing the orexin-1 receptor; assay type: cell-based; settings: agonist 70 pM Ala-6,12 human orexin-A
T2 construct: expressed in transfected cells; host or cells: CHO cells (grown under G418)
T2 sequence (O43613 1-425): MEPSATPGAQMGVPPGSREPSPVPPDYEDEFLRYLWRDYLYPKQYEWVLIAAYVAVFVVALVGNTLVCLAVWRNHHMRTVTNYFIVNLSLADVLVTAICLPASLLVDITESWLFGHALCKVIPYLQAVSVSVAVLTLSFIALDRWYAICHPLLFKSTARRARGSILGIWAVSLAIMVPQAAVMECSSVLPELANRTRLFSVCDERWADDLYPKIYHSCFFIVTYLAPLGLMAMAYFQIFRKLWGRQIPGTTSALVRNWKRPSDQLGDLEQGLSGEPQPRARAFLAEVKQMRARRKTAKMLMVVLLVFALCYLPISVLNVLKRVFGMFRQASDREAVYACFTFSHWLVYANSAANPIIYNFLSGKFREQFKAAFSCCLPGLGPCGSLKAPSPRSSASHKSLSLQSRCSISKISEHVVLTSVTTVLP

IC50 [1] [nM]	IC50 (hOX1R) [nM]	SMILES
16	–	Cc1ccnc(O[C@@H]2CC[C@@H](C)N(C(=O)c3ccccc3-n3nccn3)C2)c1 [Example 1, 4-Methyl-2-{[(3R,6R)-6-methyl-1-{[2-(2H-1,2,3-triazol-2-yl)phenyl]carbonyl}piperidin-3-yl]oxy}pyridine]
17	1480	Cc1ccnc(O[C@@H]2CC[C@@H](C)N(C(=O)c3ccccc3-n3ncnn3)C2)c1 [Example 2, (2-(2H-Tetrazol-2-yl)phenyl)((2R,5R)-2-methyl-5-((4-methylpyridin-2-yl)oxy)piperidin-1-y1)methanone]
44	1670	Cc1ccnc(O[C@@H]2CC[C@@H](C)N(C(=O)c3ccsc3-n3nccn3)C2)c1 [Example 3, 4-methyl-2-{[(3R,6R)-6-methyl-1-{[2-(2H-1,2,3-triazol-2-yl)thiophen-3-yl]carbonyl}piperidin-3-yl]oxy}pyridine]
28	875	Cc1ccnc(O[C@@H]2CC[C@@H](C)N(C(=O)c3c(F)cccc3-n3nccn3)C2)c1 [Example 4, 2-{[(3R,6R)-1-{[2-fluoro-6-(2H-1,2,3-triazol-2-yl)phenyl]carbonyl}-6-methylpiperidin-3-yl]oxy}-4-methylpyridine]
29	1620	Cc1ccnc(O[C@@H]2CC[C@@H](C)N(C(=O)c3ccc(Cl)cc3-n3nccn3)C2)c1 [Example 5, 2-{[(3R,6R)-1-{[4-chloro-2-(2H-1,2,3-triazol-2-yl)phenyl]carbonyl}-6-methylpiperidin-3-yl]oxy}-4-methylpyridine]
35	2290	Cc1ccnc(O[C@@H]2CC[C@@H](C)N(C(=O)c3ccc(F)cc3-n3nccn3)C2)c1 [Example 6, 2-{[(3R,6R)-1-{[4-fluoro-2-(2H-1,2,3-triazol-2-yl)phenyl]carbonyl}-6-methylpiperidin-3-yl]oxy}-4-methylpyridine]
59	2340	Cc1ccnc(O[C@@H]2CC[C@@H](C)N(C(=O)c3ccc(C)cc3-n3nccn3)C2)c1 [Example 7, 4-methyl-2-{[(3R,6R)-6-methyl-1-{[4-methyl-2-(2H-1,2,3-triazol-2-yl)phenyl]carbonyl}piperidin-3-yl]oxy}pyridine]
45	1770	Cc1ccnc(O[C@@H]2CC[C@@H](C)N(C(=O)c3ncccc3-n3nccn3)C2)c1 [Example 9, 2-({(2R,5R)-2-methyl-5-[(4-methylpyridin-2-yl)oxy]piperidin-1-yl}carbonyl)-3-(2H-1,2,3-triazol-2-yl)pyridine]
28	1210	Cc1ccnc(O[C@@H]2CC[C@@H](C)N(C(=O)c3ccccc3C3(C#N)CC3)C2)c1 [Example 10, 1-[2-({(2R,5R)-2-methyl-5-[(4-methylpyridin-2-yl)oxy]piperidin-1-yl}carbonyl)phenyl]cyclopropanecarbonitrile]
32	1050	Cc1ccnc(O[C@@H]2CC[C@@H](C)N(C(=O)c3cc(F)ccc3-n3nccn3)C2)c1 [Example 11, 2-{[(3R,6R)-1-{[5-fluoro-2-(2H-1,2,3-triazol-2-yl)phenyl]carbonyl}-6-methylpiperidin-3-yl]oxy}-4-methylpyridine]
299	9510	Cc1ccnc(O[C@@H]2CC[C@@H](C)N(C(=O)c3ccc(F)cc3-c3nc(C)no3)C2)c1 [Example 12, 2-{[(3R,6R)-1-{[4-fluoro-2-(3-methyl-1,2,4-oxadiazol-5-yl)phenyl]carbonyl}-6-methylpiperidin-3-yl]oxy}-4-methylpyridine]
26	964	Cc1ccnc(O[C@@H]2CC[C@@H](C)N(C(=O)c3cccc(F)c3-n3nccn3)C2)c1 [Example 13, 2-{[(3R,6R)-1-{[3-fluoro-2-(2H-1,2,3-triazol-2-yl)phenyl]carbonyl}-6-methylpiperidin-3-yl]oxy}-4-methylpyridine]
73	> 10000	Cc1ccnc(O[C@@H]2CC[C@@H](C)N(C(=O)c3ccccc3CS(C)(=O)=O)C2)c1 [Example 14, 4-methyl-2-{[(3R,6R)-6-methyl-1-({2-[(methylsulfonyl)methyl]phenyl}carbonyl)piperidin-3-yl]oxy}pyridine]
226	> 10000	COCc1ccccc1C(=O)N1C[C@H](Oc2cc(C)ccn2)CC[C@H]1C [Example 15, 2-{[(3R,6R)-1-{[2-(methoxymethyl)phenyl]carbonyl}-6-methylpiperidin-3-yl]oxy}-4-methylpyridine]
40	3100	Cc1ccnc(O[C@@H]2CC[C@@H](C)N(C(=O)c3nccnc3-c3ccccn3)C2)c1 [Example 16, 2-({(2R,5R)-2-methyl-5-[(4-methylpyridin-2-yl)oxy]piperidin-1-yl}carbonyl)-3-pyridin-2-ylpyrazine]
33	1750	Cc1ccnc(O[C@@H]2CC[C@@H](C)N(C(=O)c3cccnc3-n3cc(C)cn3)C2)c1 [Example 17, 3-({(2R,5R)-2-methyl-5-[(4-methylpyridin-2-yl)oxy]piperidin-1-yl}carbonyl)-2-(4-methyl-1H-pyrazol-1-yl)pyridine]
106	7030	Cc1ccnc(O[C@@H]2CC[C@@H](C)N(C(=O)c3ncccc3-c3noc(C)n3)C2)c1 [Example 18, 2-({(2R,5R)-2-methyl-5-[(4-methylpyridin-2-yl)oxy]piperidin-1-yl}carbonyl)-3-(5-methyl-1,2,4-oxadiazol-3-yl)pyridine]
27	980	Cc1ccnc(O[C@@H]2CC[C@@H](C)N(C(=O)c3ccccc3-c3ncccn3)C2)c1 [Example 19, ((2R,5R)-2-methyl-5-((4-methylpyridin-2-yl)oxy)piperidin-1-yl)(2-(pyrimidin-2-yl)phenyl)methanone]
42	1580	Cc1ccnc(O[C@@H]2CC[C@@H](C)N(C(=O)c3ccc(F)cc3-c3ncccn3)C2)c1 [Example 20, 2-[5-fluoro-2-({(2R,5R)-2-methyl-5-[(4-methylpyridin-2-yl)oxy]piperidin-1-yl}carbonyl)phenyl]pyrimidine]
69	2110	Cc1ccnc(O[C@@H]2CC[C@@H](C)N(C(=O)c3ccsc3-c3ncccn3)C2)c1 [Example 21, 2-[3-({(2R,5R)-2-methyl-5-[(4-methylpyridin-2-yl)oxy]piperidin-1-yl}carbonyl)thiophen-2-yl]pyrimidine]

SMILES	IC50 [1] [nM]	IC50 (hOX1R) [nM]
COc1ccc(C(=O)N2C[C@H](Oc3cc(C)ccn3)CC[C@H]2C)c(-n2nccn2)n1 [Example 8, 6-methoxy-3-({(2R,5R)-2-methyl-5-[(4-methylpyridin-2-yl)oxy]piperidin-1-yl}carbonyl)-2-(2H-1,2,3-triazol-2-yl)pyridine]	117	> 10000

— patent US20160368898A1, “2-PYRIDYLOXY-4-METHYL OREXIN RECEPTOR ANTAGONISTS” (MERCK SHARP & DOHME CORP., priority 2013, published 2016)
